Experimental data taken from EP0754193B1, “HEPATITIS C VIRUS CORE PEPTIDE FOR STIMULATION OF CYTOTOXIC T LYMPHOCYTES AND DIAGNOSIS OF HCV EXPOSURE” (priority 1994, dated 1995).
Where no end group is shown, it is not given here.

Tested on: 18Neo (H-2^d; class I MHC^+, class II MHC^- neomycin-resistance gene-transfected 3T3 fibroblast)
Settings: in the absence of CTL

Sequence: GFADLMGYIPLVGAPL [Peptide C7]
- direct toxicity to the cells: not directly toxic
